Values joined by “and” are separate entries in the source; they are usually repeats but may differ in a detail not shown here. Equal values may be shown once. Read-outs that look alike come from different tables or passages of the source.

The results in this text go back to US20140000883A1, “PETROLEUM RECOVERY PROCESS AND SYSTEM” (Shell Oil Company, priority 2012, published 2014).

Assay [1] can be described thus: Extraction of mined oil sands with solvents (bitumen recovery).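 On Recovered Bitumen: Bitumen mass includes 3 to 7 wt% residual solvent.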 How it is done:
The quality of dimethyl sulfide as an oil recovery agent based on the miscibility of dimethyl sulfide with a crude oil relative to other compounds was evaluated. […] Each oil sands sample was weighed and placed in a cellulose extraction thimble that was placed on a porous polyethylene support disk in a jacketed glass cylinder with a drip rate control valve. Each oil sands sample was then extracted with a selected solvent at a selected temperature (10° C. or 30° C.) in a cyclic contact and drain experiment, where the contact time ranged from 15 to 60 minutes. Fresh contacting solvent was applied and the cyclic extraction repeated until the fluid drained from the apparatus became pale brown in color.
The extracted fluids were stripped of solvent using a rotary evaporator and thereafter vacuum dried to remove residual solvent. […] The residual solids and extraction thimble were air dried, weighed, and then vacuum dried. […] Collectively, the weight of the solid or sample and thimble recovered after extraction plus the quantity of bitumen recovered after extraction divided by the weight of the initial oil sands sample plus the thimble provide the mass closure for the extractions.

A short description of assay [2]: SARA analysis of extracted bitumen samples. Conditions: bitumen extracted at 30° C. On the procedure:
The bitumen samples extracted at 30° C. from each oil sands sample were evaluated by SARA analysis to determine the saturates, aromatics, resins, and asphaltenes composition of the bitumen samples extracted by each solvent.

The mark [3] stands for this setting: extraction at 10 C., not corrected for residual solvent.
Setting [4] is: extraction at 30 C., not corrected for residual solvent.

`S=C=S` [Carbon Disulfide, carbon disulfide]: the “Weight Change” value was 16.8 g in assay [1] (extraction at 10 C.) and 16.4 g in assay [1] (extraction at 30 C.). The figures for the “Recovered Bitumen” value in assay [1] (setting [3]) and in assay [1] (setting [4]) were 16.62 g and 16.43 g, respectively.
As for `ClC(Cl)Cl` [Chloroform, chloroform], in assay [1], the “Recovered Bitumen” value was 17.85 g and 18.62 g; the “Weight Change” value is 18.7 g and 19.4 g.
On to `ClCCl` [Dichloromethane, dichloromethane], for which the “Weight Change” value was determined as 18.9 g in assay [1] (extraction at 10 C.) and 17.7 g in assay [1] (extraction at 30 C.). In addition, the “Recovered Bitumen” value in assay [1] (setting [3]) was found to be 17.66 g; in assay [1] (setting [4]), 16.30 g.
With `CCOC(C)=O` [Ethyl Acetate, ethyl acetate], the “extraction of / miscibility with asphaltenes” value in assay [2] is listed as “much less effective”. Besides, the “Weight Change” value was found to be 11.2 g in assay [1] (extraction at 10 C.) and 17.7 g in assay [1] (extraction at 30 C.). For the same compound, the figures for the “Recovered Bitumen” value in assay [1] (setting [3]) and in assay [1] (setting [4]) were 10.32 g and 11.46 g, respectively.
Turning to `C1CCOC1` [Tetrahydrofuran, tetrahydrofuran], the “Weight Change” value in assay [1] (extraction at 10 C.) was 17.7 g; in assay [1] (extraction at 30 C.) it was 18.0 g. Also, the “Recovered Bitumen” value in assay [1] (setting [3]) is listed as 16.72 g; in assay [1] (setting [4]), 17.67 g.
For the compound `Cc1ccccc1C` [o-Xylene, o-xylene], the “Weight Change” value in assay [1] (extraction at 10 C.) amounted to 17.3 g; in assay [1] (extraction at 30 C.), 19.5 g. The results for the “Recovered Bitumen” value in assay [1] (setting [3]) and in assay [1] (setting [4]) were 17.36 g and 17.37 g, respectively.
